The values that follow come from ChEMBL document CHEMBL3400081, “Exploration of benzamidochromenone derivatives with conformational restrictor as interleukin-5 inhibitors” (Bioorg Med Chem, 2015).

In the experiment the target is T1, Interleukin-5 (Mus musculus) (UniProt P04401).
T1 sequence (whole entry): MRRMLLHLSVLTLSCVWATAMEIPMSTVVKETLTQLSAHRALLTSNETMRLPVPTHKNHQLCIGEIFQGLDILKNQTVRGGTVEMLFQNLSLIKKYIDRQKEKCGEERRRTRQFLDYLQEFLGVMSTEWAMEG
Nature of the experiment: Inhibition of mouse IL5-mediated mouse Y16 cell proliferation at 30 uM after 48 hrs by WST1 assay.
For orientation: inhibition means the relative decrease from the control value, in per cent. High values mean a response far below the control, low ones a response near the control. The compound `O=C(Nc1ccc2oc(-c3ccc(F)cc3)c(CO)c(=O)c2c1)c1ccccc1` came in with an inhibition of 19%.

Compound `CC(=O)OCc1c(C2CCCCC2)oc2ccc(NCc3ccccc3)cc2c1=O` displayed an inhibition of 78%.

For `CC(=O)OCc1c(-c2ccccc2)oc2ccc(NC(=O)c3ccccc3)cc2c1=O`, the inhibition came to 79%.

The compound `O=C(Nc1ccc2oc(C3CCCCC3)c(CO)c(=O)c2c1)C1CCCCC1` came in with an inhibition of 9%.

For the compound `CC(C)(C)C(=O)OCc1c(C2CCCCC2)oc2ccc(NC(=O)c3ccccc3)cc2c1=O`, the inhibition was 5%.

Consider `CC(=O)OCc1c(-c2ccc(F)cc2)oc2ccc(NC(=O)c3ccccc3)cc2c1=O`, for which the inhibition came to 12%.

Turning to `CC(=O)OCc1c(C2CCCCC2)oc2ccc(NC(=O)C3CCCCC3)cc2c1=O`, the inhibition came out at 80%.

The compound `O=C(Nc1ccc2oc(C3CCCCC3)c(CO)c(=O)c2c1)c1ccccc1` gave an inhibition of 90%.

`O=C(Nc1ccc2oc(-c3ccccc3)c(CO)c(=O)c2c1)c1cnccn1` registered an inhibition of 23%.

In turn, `CC(=O)OCc1c(-c2ccccc2)oc2ccc(NC(=O)C3CCCCC3)cc2c1=O` gave an inhibition of 75%.

Compound `O=C(Nc1ccc2oc(-c3ccccc3)c(CO)c(=O)c2c1)c1ccccc1` came in with an inhibition of 71%.

Take `CC(C)C(=O)OCc1c(C2CCCCC2)oc2ccc(NC(=O)c3ccccc3)cc2c1=O`: the inhibition amounted to 71%.

`CC(=O)OCc1c(C2CCCCC2)oc2ccc(NC(=O)c3ccccc3)cc2c1=O` had an inhibition of 95%.

`O=C(Nc1ccc2oc(-c3ccccc3)c(CO)c(=O)c2c1)C1CCCCC1` had an inhibition of 35%.

Turning to `CC(=O)OCc1c(-c2ccccc2)oc2ccc(NC(=O)c3cnccn3)cc2c1=O`, the inhibition was 15%.

Compound `CC(=O)OCc1c(C2CCCCC2)oc2ccc(NC(=O)Nc3ccccc3)cc2c1=O` displayed an inhibition of 25%.

In turn, `CC(=O)OCc1c(C2CCCCC2)oc2ccc(NS(=O)(=O)c3ccccc3)cc2c1=O` displayed an inhibition of 5%.
